#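 These data come from cells grown in 96-well plates and exposed to compound for 48 hours at five concentrations. Here, GI50 denotes the concentration required for 50% inhibition of growth.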 Active and inactive are the calls of the source. Cut-off read from the data, not from the text of the source: active = GI50 up to about 1.1 µM and inactive = higher.
# Columns and labels:
# Test in all cases: NCI anticancer screen, dose series, 48 h
# SK-MEL-28 = system: SK-MEL-28
# OVCAR-5 = system: OVCAR-5
# OVCAR-8 = system: OVCAR-8
# SF-295 = system: SF-295
# NCI-H226 = system: NCI-H226
# SNB-19 = system: SNB-19
# RPMI-8226 = system: RPMI-8226
# KM12 = system: KM12
# UACC-257 = system: UACC-257
# CCRF-CEM = system: CCRF-CEM
# HCT-15 = system: HCT-15
# COLO 205 = system: COLO 205
# HCC 2998 = system: HCC 2998
# A549 = system: A549
# SK-OV-3 = system: SK-OV-3
# NCI-H23 = system: NCI-H23
# HT-29 = system: HT-29
# OVCAR-4 = system: OVCAR-4
# UO-31 = system: UO-31
# SN12C = system: SN12C
SMILES,GI50 (SK-MEL-28),GI50 (OVCAR-5),GI50 (OVCAR-8),GI50 (SF-295),GI50 (NCI-H226),GI50 (SNB-19),GI50 (RPMI-8226),GI50 (KM12),GI50 (UACC-257),GI50 (CCRF-CEM),GI50 (HCT-15) [µM],GI50 (COLO 205),GI50 (HCC 2998),GI50 (A549),GI50 (SK-OV-3),GI50 (NCI-H23),GI50 (HT-29),GI50 (OVCAR-4),GI50 (UO-31),GI50 (SN12C)
Nc1ncnc2c1sc1nc3ccccc3n12,> 100 µM (inactive),> 93.3 µM (inactive),60.8 µM (inactive),> 56.2 µM (inactive),51.1 µM (inactive),> 100 µM (inactive),> 91.4 µM (inactive),> 45 µM (inactive),> 100 µM (inactive),19.8 µM (inactive),> 100,> 100 µM (inactive),> 44.8 µM (inactive),> 49.1 µM (inactive),12.5 µM (inactive),> 100 µM (inactive),> 70.8 µM (inactive),> 100 µM (inactive),> 77.8 µM (inactive),> 100 µM (inactive)
CC(=O)Nc1ccc(C(=O)NN2C(=O)C(Cl)C2/C=C/c2ccccc2)cc1 (configuration not stated),> 100 µM (inactive),> 100 µM (inactive),> 100 µM (inactive),> 100 µM (inactive),> 100 µM (inactive),> 100 µM (inactive),> 100 µM (inactive),> 100 µM (inactive),> 100 µM (inactive),> 100 µM (inactive),–,> 100 µM (inactive),> 100 µM (inactive),> 100 µM (inactive),> 100 µM (inactive),> 100 µM (inactive),> 100 µM (inactive),–,> 100 µM (inactive),–
Cn1c(=O)[nH]c2c(c1=O)C(=O)CN2,> 100 µM (inactive),> 100 µM (inactive),> 100 µM (inactive),> 100 µM (inactive),36.2 µM (inactive),> 100 µM (inactive),> 100 µM (inactive),> 100 µM (inactive),> 100 µM (inactive),> 100 µM (inactive),> 100,> 100 µM (inactive),> 100 µM (inactive),> 100 µM (inactive),> 100 µM (inactive),–,–,> 100 µM (inactive),> 100 µM (inactive),> 100 µM (inactive)
CCSc1nc(N)c2c(-c3ccccc3)c3c(nc2n1)CCC3,> 100 µM (inactive),9.91 µM (inactive),> 100 µM (inactive),> 100 µM (inactive),–,> 100 µM (inactive),> 100 µM (inactive),> 100 µM (inactive),> 100 µM (inactive),> 100 µM (inactive),> 100,> 100 µM (inactive),–,4.56 µM (inactive),> 100 µM (inactive),> 100 µM (inactive),–,> 100 µM (inactive),2.59 µM (inactive),> 100 µM (inactive)

# Reference: ChEMBL document CHEMBL1201862, “PubChem BioAssay data set” (2004)
